For 14 compounds, logD and half-life results are on record in ChEMBL document CHEMBL1759966, “Design and optimisation of orally active TLR7 agonists for the treatment of hepatitis C virus infection” (Bioorg Med Chem Lett, 2011).

The nature of series [1]: Lipophilicity, log D of the compound. The following applies: octanol/water. The format is physicochemical.
Series [2] is described as follows: Half life in rat cytosol. The format is ADME.

Turning to `Nc1nc(C(F)(F)F)cc2c1[nH]c(=O)n2Cc1ccccc1`, the logD in series [1] was found to be 3.3. The compound `COCCCn1c(=O)[nH]c2c(N)nc(C(F)(F)F)cc21` had a logD in series [1] of 1.9.

As to `Nc1nc(C(F)(F)F)cc2c1[nH]c(=O)n2CC1CCCOC1` (centres undefined), in series [1], the logD was found to be 2. For the compound `Cc1ccc(Cn2c(=O)[nH]c3c(N)nc(C(F)(F)F)cc32)nc1`, in series [1], the logD was found to be 2.2. In addition, in series [2], the half-life was found to be 1.38 h. For `Cc1ncc(Cn2c(=O)[nH]c3c(N)nc(C(F)(F)F)cc32)cn1`, in series [1], the logD was determined as 1.6.

`Cc1cnc(Cn2c(=O)[nH]c3c(N)nc(C(F)(F)F)cc32)cn1`: the logD in series [1] is 1.8. In series [1], `Cc1cc(Cn2c(=O)[nH]c3c(N)nc(C(F)(F)F)cc32)no1` gave a logD of 2.1. The half-life in series [2] was more than 16.7 h.

`Cc1nc(Cn2c(=O)[nH]c3c(N)nc(C(F)(F)F)cc32)cs1` returned a logD in series [1] of 2.3. Further, the half-life in series [2] is more than 16.7 h. In turn, `Cc1nc(Cn2c(=O)[nH]c3c(N)nc(C(F)(F)F)cc32)co1` yielded a logD in series [1] of 1.7. Besides, in series [2], the half-life is more than 16.7 h. In the case of `Cc1ccc(Cn2c(=O)[nH]c3c(N)nc(-c4nc(C)co4)cc32)cn1`, the logD in series [1] turned out to be 2.1. In series [2], this compound came in with a half-life of more than 16.7 h. Compound `Cc1ccc(Cn2c(=O)[nH]c3c(N)nc(-n4nccn4)cc32)cn1` showed a logD in series [1] of 1.6. On the same count and under the same terms, the result for `Cc1ccc(Cn2c(=O)[nH]c3c(N)nc(OCC4CCN(C)CC4)cc32)cn1` reads 0.2; that for `COCCCOc1cc2c([nH]c(=O)n2Cc2ccc(C)nc2)c(N)n1`, 1.8; that for `Cc1ccc(Cn2c(=O)[nH]c3c(N)nc(OCC4CCOC4)cc32)cn1` (centres undefined), 1.8.
